According to patent US11459307B2, “Heterocyclic compounds for the inhibition of PASK” (BioEnergenix LLC, priority 2009, dated 2022):

What was measured:
[1] = test system: high fat diet fed C57Bl6 mice; test: Mouse High Fat Dietary Model with fast/re-feed; format: in vivo; conditions: for reduced body weight vs Vehicle: fast/re-feed
Protocol: A standard model of human hyperlipidemia and insulin resistance is the mouse fed a high fat diet for several weeks (31, 33). Additionally, since hepatic lipid synthesis is known to be regulated by food consumption, the fast/re-feed cycle of Horton et al. (32) was incorporated into the chronic high fat diet model. The compound was evaluated in this model as an agent to restore insulin sensitivity and lower blood lipids. The chronic high fat diet was fed to mice to simulate a standard Western diet which is elevated in calories from high fat and carbohydrate intake. This and similar models of dietary induced obesity, insulin insensitivity and elevated serum lipids and cholesterol are used as mouse and rat models of human pathology including hyperlipidemia, type II diabetes, atherosclerosis, obesity, cardiovascular and liver disease. These models have been used as excellent predictors of efficacy in human clinical trials (PPAR and FXR agonists).
The farnesoid X receptor (FXR) is a ligand-activated transcription factor and a member of the nuclear receptor superfamily. […] While the mechanism of action of FXR agonists is clearly distinct from PASK inhibition, WAY-362450 has been used as a positive control compound producing physiologically beneficial changes in glucose and lipid metabolism resembling inhibition of PASK. Throughout these in vivo assays, WAY-362450 has been used as a control compound, and will be referred to as such.
Male C57Bl6 mice were obtained from Jackson Laboratories and had been fed a high fat diet (60% kcal fat) for eight weeks. The mice were fed an identical high fat diet (Research Diet D12492) upon arrival and during the study. All mice were treated with the subject compound at 30 or 100 mg/kg, control compound (WAY-362450) at 30 mg/kg or vehicle by oral gavage daily for three days. On the final day, 10 animals from each group began an 24 hour fast and then were sacrificed (fasted groups 1a,2a,3a,4a). Alternatively, 10 animals from each group underwent a 24 hour fast followed by a 12 hour re-feed period with the same high fat diet ad libitum and then were sacrificed (re-fed groups 1b,2b,3b,4b).
Body weights were monitored at the start and end of the protocol. After completing the fast or fast/re-feed conditions, the mice were given avertin for anesthesia by intraperitoneal administration. Whole blood was collected by cardiac puncture and the mice were terminated by cervical dislocation. Livers were collected surgically, weighed and immediately frozen in liquid nitrogen. The blood was placed in Li-heparin treated tubes, centrifuged to collect plasma and the plasma frozen.
The plasma was analyzed by standard colorimetric assays for glucose, insulin, triglycerides and cholesterol. Frozen liver samples were pulverized and extracted in ethanolic KOH and analyzed for liver triglycerides and cholesterol.

[2] = test system: high fructose diet fed Sprague Dawley rats; test: Rat High Fructose Model with Fast/Re-Feed; format: in vivo
Protocol: Another standard model of human hyperlipidemia and insulin resistance is the rat fed a high fructose diet for several weeks (33). Additionally, since hepatic lipid synthesis is known to be regulated by food consumption, the fast/reefed cycle of Horton et al. (32) was incorporated into the chronic high fructose diet model. A compound disclosed above was evaluated in this model as an agent to restore insulin sensitivity and lower blood lipids.
Eight week old male Sprague Dawley rats were purchased from Harlan, Inc. The rats weighed 200-225 g upon arrival and were divided into groups as detailed in Table 2 and were immediately placed on a high fructose diet (60% kcal fructose; Open Source Diet #D00111301) ad libitum for three weeks. During the last week of feeding the high fructose diet, the rats were dosed with vehicle (5% solutol, 8% β cyclo-dextrin), subject compound at 30 mg/kg or 100 mg/kg or the control compound at 30 mg/kg by oral gavage once daily for 7 days. On the final day, all animals were placed on a […] followed by a 12 hour re-feed period on the high fructose diet ad libitum. Body weights were monitored throughout the protocol. After completing the fast or fast/re-feed conditions, the rats were given avertin for anesthesia by intraperitoneal administration. Whole blood was collected by cardiac puncture and the rats were terminated by cervical dislocation. Livers were collected surgically, weighed and immediately frozen in liquid nitrogen. The blood was placed in Li-heparin treated tubes, centrifuged to collect plasma and the plasma frozen.
The plasma was analyzed by standard colorimetric assays for glucose, insulin, triglycerides and cholesterol.

[3] = 30 mg/kg oral once daily for 7 days
[4] = fast and re-feed, 30 mg/kg for 7 days
[5] = 100 mg/kg oral once daily for 7 days
[6] = fast and re-feed, 100 mg/kg for 7 days

CC(C)OC(=O)C1=CN(C(=O)c2ccc(F)c(F)c2)CC(C)(C)c2c1[nH]c1ccccc21 [control compound, WAY-362450, reference compound]
effects on liver weight ([1]; 30 mg/kg oral daily for three days): identical to those of the subject compound at the same dose | body weight relative to the Vehicle group (FIG. 1) [2, 3]: significant increase in body weight | increase in liver weight [2, 3]: about 2 g | increased liver weights [2, 3]: about 15% | effect on plasma glucose concentrations [2, 4]: did not alter plasma glucose concentrations

CC(C)N(C)c1nc2cc(C(=O)O)ccc2nc1-c1ccc(F)cc1 [subject compound]
reductions in liver weights ([1]; 30 and 100 mg/kg oral daily for three days): 7-9% | decreased plasma glucose vs vehicle ([1]; fast and re-feed, 100 mg/kg (highest dose)): up to 21% | reduced body weight vs Vehicle ([1]; 30 mg/kg oral gavage daily for three days): 2.7% | reduced body weight vs Vehicle ([1]; 100 mg/kg oral gavage daily for three days): 5.1% | decreased plasma insulin vs vehicle ([1]; fasted and re-fed, 30 mg/kg): 10% | decreased plasma insulin vs vehicle ([1]; fasted and re-fed, 100 mg/kg): 28% | decreased plasma glucose vs vehicle ([1]; fasted only, 30 mg/kg): 30% | decreased body weight vs Vehicle Fasted ([1]; fasted only, 30 mg/kg oral daily for three days): 1.8% | decreased plasma glucose vs vehicle ([1]; fasted only, 100 mg/kg): 43% | decreased body weight vs Vehicle Fasted ([1]; fasted only, 100 mg/kg oral daily for three days): 5.1% | decreased plasma insulin vs vehicle ([1]; fasted only, 30 and 100 mg/kg): up to 26% | body weight relative to the Vehicle group (FIG. 1) [2, 3]: modest increase in body weight | body weight relative to the Vehicle group (FIG. 1) [2, 5]: modest decrease in body weight | maximal reduction in liver weight [2, 5]: about 4% | decrease in plasma glucose vs vehicle [2, 4]: 21.5% | insulin levels reduced vs vehicle [2, 4]: 15.4% | plasma cholesterol decreased vs vehicle [2, 4]: 5.7% | decrease in plasma glucose vs vehicle [2, 6]: 26.3% | insulin levels reduced vs vehicle [2, 6]: 31.4% | plasma cholesterol decreased vs vehicle [2, 6]: 10%
